Laboratory results as given in ChEMBL document CHEMBL1201862, “PubChem BioAssay data set” (2004).
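A five-concentration, 48-hour dose response in 96-well plates underlies each endpoint, interpolated linearly between surrounding concentrations. GI50 is the concentration that inhibits growth by half.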 Calls of active or inactive are those of the source. No stated cut-off is given here; in the data, active = GI50 up to about 1.1 µM and inactive = higher.

Experiments:
Experiment in all cases: NCI-60 cell line screen, 48 h
HOP-18 = system: HOP-18
M19-MEL = system: M19-MEL
DLD-1 = system: DLD-1
KM-20L2 = system: KM-20L2
LXFL 529 = system: LXFL 529
DMS-114 = system: DMS-114
RXF 631 = system: RXF 631
SNB-78 = system: SNB-78
XF498 = system: XF498

Measured: GI50

CN(C)CCCNC(=O)c1cccc2nc3ccccc3nc12
inactive: HOP-18 > 42.5 µM | M19-MEL 6.58 µM | DLD-1 > 41.6 µM | KM-20L2 25.1 µM | LXFL 529 20.2 µM | DMS-114 12.3 µM | RXF 631 32.6 µM | SNB-78 14.3 µM | XF498 1.14 µM

CCOC(=O)COS(=O)(=O)C(F)(F)F
inactive: HOP-18 > 100 µM | M19-MEL > 100 µM | DLD-1 41.2 µM | KM-20L2 > 100 µM | LXFL 529 89.9 µM | DMS-114 17.1 µM | RXF 631 45.1 µM | SNB-78 > 100 µM | XF498 > 100 µM

CC1=C(C(=O)CC(=O)C(=O)Nc2ccccc2)Sc2ccccc2N1
inactive: HOP-18 78.3 µM | M19-MEL > 100 µM | DLD-1 > 100 µM | KM-20L2 > 100 µM | LXFL 529 > 100 µM | DMS-114 > 100 µM | RXF 631 > 100 µM | SNB-78 > 100 µM | XF498 > 100 µM
